Results published in patent publication US20100168197A1, “MUSCARINIC RECEPTOR ANTAGONISTS” (priority 2007, published 2010).

Test system: Guinea Pig trachea
Assay: In-vitro functional assay, carbachol-contracted isolated trachea
Details: Cavia porcellus; isolated tissue, 1 μM carbachol contraction; range stated for the group of tested compounds
Procedure: The contractile results are expressed as % of control E max. ED50 values are calculated by fitting a non-linear regression curve (Graph Pad Prism). pKb values are calculated by the formula pKb=−log [(molar concentration of antagonist/(dose ratio−1))]
where, dose ratio=ED50 in the presence of antagonist/ED50 in the absence of antagonist.
The Guinea Pig (400-600 gm) was procured and trachea was removed under anesthesia (sodium pentobarbital, 300 mg/kg i.p) and was immediately kept it in ice-cold Krebs Henseleit buffer. Indomethacin (10 μM) was present throughout the KH buffer to prevent the formation of bronchoactive prostanoids.
The tissue of adherent fascia was cleaned and was cut into strips of equal size (with approximately 4-5 tracheal rings in each strip). The epithelium was removed by careful rubbing, minimizing damage to the smooth muscle. […] Opposite ends of the cut rings were tied with the help of a thread. The tissue was mounted in isolated tissue baths containing 10 ml Krebs Henseleit buffer maintained at 37° C. and bubbled with carbogen, at a basal tension of 1 gm. The buffer was changed 4-5 times for about an hour. The tissue was equilibrated for 1 hour for stabilization. After 1 hour, the tissue was challenged with 1 μM carbachol. This was repeated after every 2-3 washes till two similar consecutive responses were obtained. At the end of stabilization, the tissue was washed for 30 minutes followed by incubation with suboptimal dose of MRA/Vehicle for 20 minutes prior to contraction of the tissues with 1 μM carbachol. The contractile response of tissues was recorded either on Powerlab data acquisition system or on Grass polygraph (Model 7). The relaxation was expressed as percentage of maximum carbachol response. The data was expressed as mean±s.e. mean for n observations. The EC50 was calculated as the concentration producing 50% of the maximum relaxation to 1 μM carbachol. The percent relaxation was compared between the treated and control tissues using non-parametric unpaired t-test. A p value of <0.05 was considered to be statistically significant.

CC[n+]1ccn(CCCOC(=O)[C@](O)(c2ccccc2)[C@@H]2CCC(F)(F)C2)c1C [Compound No. 21, 1-[3-({(2R)-2-[(1R)-3,3-Difluorocyclopentyl]-2-hydroxy-2-phenylacetyl}oxy)propyl]-3-ethyl-2-methyl-1H-imidazol-3-ium iodide]
Kb: 0.1 to 3.16 nM

Cc1n(CCCOC(=O)[C@](O)(c2ccccc2)[C@@H]2CCCC(F)(F)C2)cc[n+]1C [Compound No. 5, 1-[3-({(2R)-2-[(1R)-3,3-Difluorocyclohexyl]-2-hydroxy-2-phenylacetyl}oxy)propyl]-2,3-dimethyl-1H-imidazol-3-ium iodide]
Kb: 0.1 to 3.16 nM

Cc1n(CCCOC(=O)[C@](O)(c2ccccc2)[C@@H]2CCC(F)(F)C2)cc[n+]1Cc1ccccc1 [Compound No. 28, 3-Benzyl-1-[3-({(2R)-2-[(1R)-3,3-difluorocyclopentyl]-2-hydroxy-2-phenylacetyl}oxy)propyl]-2-methyl-1H-imidazol-3-ium chloride]
Kb: 0.1 to 3.16 nM

Cc1n(CCCOC(=O)[C@](O)(c2ccccc2)[C@@H]2CCC(F)(F)C2)cc[n+]1CC1CC1 [Compound No. 22, 3-(Cyclopropylmethyl)-1-[3-({(2R)-2-[(1R)-3,3-difluorocyclopentyl]-2-hydroxy-2-phenylacetyl}oxy)propyl]-2-methyl-1H-imidazol-3-ium bromide]
Kb: 0.1 to 3.16 nM

Cc1n(CCCOC(=O)[C@](O)(c2ccccc2)[C@@H]2CCCC(F)(F)C2)cc[n+]1Cc1ccc(Br)cc1 [Compound No. 9, 3-(4-Bromobenzyl)-1-[3-({(2R)-2-[(1R)-3,3-difluorocyclohexyl]-2-hydroxy-2-phenylacetyl}oxy)propyl]-2-methyl-1H-imidazol-3-ium bromide]
Kb: 0.1 to 3.16 nM

Cc1n(CCCOC(=O)[C@](O)(c2ccccc2)[C@@H]2CCCC(F)(F)C2)cc[n+]1Cc1ccc(F)cc1 [Compound No. 31, 1-[3-({(2R)-2-[(1R)-3,3-Difluorocyclohexyl]-2-hydroxy-2-phenylacetyl}oxy)propyl]-3-(4-fluorobenzyl)-2-methyl-1H-imidazol-3-ium bromide]
Kb: 0.1 to 3.16 nM

Cc1n(CCCOC(=O)C(O)(c2ccccc2)C2CCCCCC2)cc[n+]1C (centres unmarked) [Compound No. 6, 1-(3-{[Cycloheptyl(hydroxy)phenylacetyl]oxy}propyl)-2,3-dimethyl-1H-imidazol-3-ium iodide]
Kb: 0.1 to 3.16 nM

Cc1n(CCCOC(=O)[C@](O)(c2ccccc2)[C@@H]2CCC(F)(F)C2)cc[n+]1CC1CCCCC1 [Compound No. 23, 3-(Cyclohexylmethyl)-1-[3-({(2R)-2-[(1R)-3,3-difluorocyclopentyl]-2-hydroxy-2-phenylacetyl}oxy)propyl]-2-methyl-1H-imidazol-3-ium bromide]
Kb: 0.1 to 3.16 nM

Cc1n(CCOC(=O)[C@](O)(c2ccccc2)[C@@H]2CCC(F)(F)C2)cc[n+]1Cc1ccccc1 [Compound No. 17, 3-Benzyl-1-[2-({(2R)-2-[(1R)-3,3-difluorocyclopentyl]-2-hydroxy-2-phenylacetyl}oxy)ethyl]-2-methyl-1H-imidazol-3-ium chloride]
Kb: 0.1 to 3.16 nM

Cc1n(CCCOC(=O)[C@](O)(c2ccccc2)[C@@H]2CCC(F)(F)C2)cc[n+]1C [Compound No. 30, 1-[3-({(2R)-2-[(1R)-3,3-Difluorocyclopentyl]-2-hydroxy-2-phenylacetyl}oxy)propyl]-2,3-dimethyl-1H-imidazol-3-ium bromide]
Kb: 0.1 to 3.16 nM

Cc1n(CCCOC(=O)[C@](O)(c2ccccc2)[C@@H]2CCC(F)(F)C2)cc[n+]1Cc1ccc(F)cc1 [Compound No. 13, 1-[3-({(2R)-2-[(1R)-3,3-Difluorocyclopentyl]-2-hydroxy-2-phenylacetyl}oxy)propyl]-3-(4-fluorobenzyl)-2-methyl-1H-imidazol-3-ium bromide]
Kb: 0.1 to 3.16 nM

CCCC[n+]1ccn(CCCOC(=O)[C@](O)(c2ccccc2)[C@@H]2CCC(F)(F)C2)c1C [Compound No. 51, 3-Butyl-1-[3-({(2R)-2-[(1R)-3,3-difluorocyclopentyl]-2-hydroxy-2-phenylacetyl}oxy)propyl]-2-methyl-1H-imidazol-3-ium bromide]
Kb: 0.1 to 3.16 nM

Cc1n(CCCOC(=O)[C@](O)(c2ccccc2)[C@@H]2CCCC(F)(F)C2)cc[n+]1Cc1ccccc1 [Compound No. 37, 3-Benzyl-1-[3-({(2R)-2-[(1R)-3,3-difluorocyclohexyl]-2-hydroxy-2-phenylacetyl}oxy)propyl]-2-methyl-1H-imidazol-3-ium chloride]
Kb: 0.1 to 3.16 nM

Cc1n(CCCOC(=O)[C@](O)(c2ccccc2)[C@@H]2CCC(F)(F)C2)cc[n+]1CCc1ccccc1 [Compound No. 29, 1-[3-({(2R)-2-[(1R)-3,3-Difluorocyclopentyl]-2-hydroxy-2-phenylacetyl}oxy)propyl]-2-methyl-3-(2-phenylethyl)-1H-imidazol-3-ium bromide]
Kb: 0.1 to 3.16 nM

Cc1n(CCOC(=O)[C@](O)(c2ccccc2)[C@@H]2CCC(F)(F)C2)cc[n+]1C [Compound No. 19, 1-[2-({(2R)-2-[(1R)-3,3-Difluorocyclopentyl]-2-hydroxy-2-phenylacetyl}oxy)ethyl]-2,3-dimethyl-1H-imidazol-3-ium bromide]
Kb: 0.1 to 3.16 nM

Cc1n(CCOC(=O)[C@](O)(c2ccccc2)[C@@H]2CCC(F)(F)C2)cc[n+]1CC1CC1 [Compound No. 85, 3-(Cyclopropylmethyl)-1-[2-({(2R)-2-[(1R)-3,3-difluorocyclopentyl]-2-hydroxy-2-phenylacetyl}oxy)ethyl]-2-methyl-1H-imidazol-3-ium bromide]
Kb: 0.1 to 3.16 nM

CCCC[n+]1ccn(CCCOC(=O)C(O)(c2cccs2)c2cccs2)c1C [Compound No. 95, 3-Butyl-1-{3-[2-hydroxy(di-2-thienyl)acetoxy]propyl}-2-methyl-1H-imidazol-3-ium bromide]
Kb: 0.1 to 3.16 nM
